# Test results taken from US20260250320A1, “LIPIDATED PEPTIDE INHIBITORS OF INTERLEUKIN-23 RECEPTOR” (Janssen Pharmaceutica NV, priority 2023, published 2026).
# Where a SMILES comes first, the peptide text is derived from it. Bridges are numbered along the chain shown (N, C = ends). Side-chain parts run from the residue outwards. [ ]: non-standard residue; d: D form. The star is where a group is joined. X17 = O=C(O)CCCCCCCCCCCCCCCCCCC(=O)N[C@@H](CCC(=O)NCCOCCOCCOCCOCCOCCOCCOCCOCCOCCOCCOCCOCCOCC(=O)*)C(=O)O; Me3N+(CH2)2O(CH2)2O(CH2)2CO = C[N+](C)(C)CCOCCOCCC(=O)*; X24 = O=C(O)CCCCCCCCCCCCCCCCCN[C@@H](CCC(=O)*)C(=O)O; Trp(7-Me) = Cc1cccc2c(C[C@H](N)C(=O)O)c[nH]c12; Hexanoyl(6-NMe3+) = C[N+](C)(C)CCCCCC(=O)*; 2Nal = N[C@@H](Cc1ccc2ccccc2c1)C(=O)O; AEF = NCCOc1ccc(C[C@H](N)C(=O)O)cc1; 3Pal = N[C@@H](Cc1cccnc1)C(=O)O; Lys(Me) = CNCCCC[C@H](N)C(=O)O; Pen = CC(C)(S)[C@H](N)C(=O)O; Thp = NC1(C(=O)O)CCOCC1; X1 = C[N+](C)(C)CCCCC*; AEEA = NCCOCCOCC(=O)O; Sar = CNCC(=O)O
# Legend:
# IL-23R = target: T1, IL-23R (Homo sapiens, UniProt Q5VWK5); assay: IL23R Reporter Assay; assay type: cell-based; settings: HEK293 cells containing IL-23R, IL-12Rβ1 and STAT-inducible firefly luciferase reporter; 10 ng/mL IL-23 (EC90); 5 h
# T1 construct: HEK293 cells containing IL-23R, IL-12Rβ1 and a firefly luciferase reporter gene driven by a STAT-inducible promoter (Promega); host or cells: HEK293
# T1 sequence (Q5VWK5 24-629): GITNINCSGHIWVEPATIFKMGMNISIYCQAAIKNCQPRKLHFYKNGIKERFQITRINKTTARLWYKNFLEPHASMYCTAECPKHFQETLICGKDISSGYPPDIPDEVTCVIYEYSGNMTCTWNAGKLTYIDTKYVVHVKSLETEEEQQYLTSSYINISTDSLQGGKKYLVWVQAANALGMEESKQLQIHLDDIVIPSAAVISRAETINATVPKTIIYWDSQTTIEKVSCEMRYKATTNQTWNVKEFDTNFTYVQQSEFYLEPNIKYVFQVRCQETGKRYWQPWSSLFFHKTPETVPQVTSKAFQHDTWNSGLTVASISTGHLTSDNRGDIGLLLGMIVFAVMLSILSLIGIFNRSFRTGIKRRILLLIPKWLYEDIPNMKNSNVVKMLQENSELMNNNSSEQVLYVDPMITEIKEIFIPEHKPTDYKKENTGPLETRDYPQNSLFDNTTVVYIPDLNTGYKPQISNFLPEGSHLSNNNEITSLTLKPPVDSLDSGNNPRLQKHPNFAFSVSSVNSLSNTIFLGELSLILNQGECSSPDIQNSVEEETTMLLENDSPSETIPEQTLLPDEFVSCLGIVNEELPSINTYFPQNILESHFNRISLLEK
# In short: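 IC50 values were fitted with a 4-parameter Hill equation to luciferase signal, scaled between IL-23-only wells (0% inhibition) and 30 μM reference inhibitor (100%). The readout was a STAT-inducible reporter in IL-23R/IL-12Rβ1 HEK293 cells, stimulated with added 10 ng/mL IL-23 (EC90) for 5 h at 37° C and developed with BioGlo.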
# [1] = tested on: IL-23-stimulated phosphorylated STAT3 in peripheral blood mononuclear cells (PBMCs); assay: PBMC pSTAT3 Assay; assay type: cell-based; settings: PBMCs from healthy donors; 30 min preincubation with peptide; IL-23 5 ng/mL for 30 min; phospho-STAT3 by MSD
# In short: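 Phospho-STAT3 quantified by Meso Scale assay in lysates of PBMCs exposed to IL-23 (5 ng/mL, 30 min, 37 °C) after 30 min peptide pretreatment. Cells were cryopreserved donor PBMCs activated 4 days with anti-CD3 plus IL-1β (100 ng/mL) and starved ~4 h; IC50 reported.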
Structure (SMILES),IC50 (IL-23R) [nM],IC50 [1] [nM]
"CC(=O)NCCCC[C@@H]1NC(=O)[C@H](Cc2c[nH]c3c(C)cccc23)NC(=O)[C@H]([C@@H](C)O)NC(=O)[C@H](CC(N)=O)NC(=O)[C@@H](NC(C)=O)C(C)(C)SSC(C)(C)[C@@H](C(=O)N[C@@H](Cc2ccc(OCCN)cc2)C(=O)N[C@@H](Cc2ccc3ccccc3c2)C(=O)NC2(C(=O)N[C@@H](CCC(=O)O)C(=O)N[C@@H](CC(N)=O)C(=O)N[C@@H](Cc3cccnc3)C(=O)N(C)CC(=O)N[C@@H](CCCCNC(=O)COCCOCCNC(=O)COCCOCCNC(=O)CC[C@H](NC(=O)CCCCCCCCCCCCCCCCC(=O)O)C(=O)O)C(N)=O)CCOCC2)NC1=O [compound 27, MeCO-Pen(3)-N-T-7MeW-K(Ac)-Pen(3)-AEF-2Nal-THP-E-N-3Pya-Sar-K(PEG2PEG2gEC18OH)-CONH2]",< 50,< 0.5
"CC(=O)NCCCC[C@@H]1NC(=O)[C@H](Cc2c[nH]c3c(C)cccc23)NC(=O)[C@H]([C@@H](C)O)NC(=O)[C@H](CC(N)=O)NC(=O)[C@@H](NC(=O)C(CCCNC(=N)N)CC(=O)COCCOCCNC(=O)COCCOCCNC(=O)CC[C@H](NC(=O)CCCCCCCCCCCCCCCCC(=O)O)C(=O)O)C(C)(C)SSC(C)(C)[C@@H](C(=O)N[C@@H](Cc2ccc(OCCN)cc2)C(=O)N[C@@H](Cc2ccc3ccccc3c2)C(=O)NC2(C(=O)N[C@@H](CCC(=O)O)C(=O)N[C@@H](CC(N)=O)C(=O)N[C@@H](Cc3cccnc3)C(=O)N(C)[C@@H](CCCCNC(=O)CCC(=O)N[C@H](CC(=O)O)C[N+](C)(C)C)C(N)=O)CCOCC2)NC1=O (some centres unmarked) [compound 43, HOC18gEPEG2PEG2CO-r-Pen(3)-N-T-7MeW-K(Ac)-Pen(3)-AEF-2Nal-THP-E-N-3Pya-NMeK(d)-CONH2]",< 50,< 0.5
"Cc1cccc2c(C[C@@H]3NC(=O)[C@H]([C@@H](C)O)NC(=O)[C@H](CC(N)=O)NC(=O)[C@@H](NC(=O)[C@@H](CCCNC(=N)N)NC(=O)CCCCC[N+](C)(C)C)C(C)(C)SSC(C)(C)[C@@H](C(=O)N[C@@H](Cc4ccc(OCCN)cc4)C(=O)N[C@@H](Cc4ccc5ccccc5c4)C(=O)NC4(C(=O)N[C@@H](CCC(=O)O)C(=O)N[C@@H](CC(N)=O)C(=O)N[C@@H](Cc5cccnc5)C(=O)N(C)CC(N)=O)CCOCC4)NC(=O)[C@H](CCCCNC(=O)COCCOCCNC(=O)COCCOCCNC(=O)CC[C@H](NCCCCCCCCCCCCCCCCCC(=O)O)C(=O)O)NC3=O)c[nH]c12 [compound 71, 5cpaCO-r-Pen(3)-N-T-7MeW-K(PEG2PEG2C18OH)-Pen(3)-AEF-2Nal-THP-E-N-3Pya-Sar-CONH2] ({Hexanoyl(6-NMe3+)}-[dR][Pen]NT[Trp(7-Me)]K([AEEA-AEEA-X24])[Pen][AEF][2Nal][Thp]EN[3Pal][Sar]-NH2; disulfide 2-7)",50 to 500,< 0.5
"CC(=O)N(C)CCCC[C@@H]1NC(=O)[C@H](Cc2c[nH]c3c(C)cccc23)NC(=O)[C@H]([C@@H](C)O)NC(=O)[C@H](CC(=O)N(C)C)NC(=O)[C@@H](NC(=O)[C@@H](CCCCNC(=O)COCCOCCOCCOCCOCCOCCOCCOCCOCCOCCOCCOCCOCCNC(=O)CC[C@H](NC(=O)CCCCCCCCCCCCCCCCCCC(=O)O)C(=O)O)NC(=O)CCOCCOCC[N+](C)(C)C)C(C)(C)SSC(C)(C)[C@@H](C(=O)N[C@@H](Cc2ccc(OCCCCC[N+](C)(C)C)cc2)C(=O)N[C@@H](Cc2ccc3ccccc3c2)C(=O)NC2(C(=O)N[C@@H](CCCCN(C)C(C)=O)C(=O)N[C@@H](CC(N)=O)C(=O)N[C@@H](Cc3cccnc3)C(=O)N(C)CC(=O)N(C)C)CCOCC2)NC1=O [compound 130, cPEG3aCO-k(PEG12gEC20OH)-Pen(3)-N(N(Me)2)-T-7MeW-K(NMeAc)-Pen(3)-TMAPF-2Nal-THP-K(NMeAc)-N-3Pya-Sar-CON(Me)2] ({Me3N+(CH2)2O(CH2)2O(CH2)2CO}-[dK](X17)[Pen]D(NMe2)T[Trp(7-Me)][Lys(Me)](Ac)[Pen]Y(X1)[2Nal][Thp][Lys(Me)](Ac)N[3Pal][Sar]-NMe2; disulfide 2-7)",< 50,< 0.5
